Values of other authors, collected in the PKSmart pharmacokinetics tables (Seal et al. 2025).

Test: Lombardo, Berellini, Obach 2018, Drug Metab Dispos 46:1466, doi 10.1124/dmd.118.082966
Details: human; for MRT / Vd / clearance / half-life: in vivo, iv; for fraction unbound: plasma

Compound	MRT [h]	Vd [L/kg]	clearance [mL/min/kg]	half-life [h]	fraction unbound
C[C@@H](NCCCc1cccc(C(F)(F)F)c1)c1cccc2ccccc12	16	17.6	18.3	19.9	0.05
Fc1ccc([C@@H]2CCNC[C@H]2COc2ccc3c(c2)OCO3)cc1	17	18	18	13	0.06
COc1cc2c(cc1O)CCN[C@]21CS[C@@H]2c3c(OC(C)=O)c(C)c4c(c3[C@H](COC1=O)N1[C@@H]2[C@H]2c3c(cc(C)c(OC)c3O)C[C@@H]([C@@H]1O)N2C)OCO4	35	25	12	44	0.06
CC(=O)NC[C@H]1CN(c2ccc(N3CCOCC3)c(F)c2)C(=O)O1	5.4	0.58	1.8	4.5	–
COc1cccc(OC)c1C(=O)NC1C(=O)N2C(C(=O)O)C(C)(C)S[C@H]12 (stereo partly specified)	0.8	0.32	6.6	0.64	0.43
O=C(c1ccc(OCCN2CCCCC2)cc1)c1c(-c2ccc(O)cc2)sc2cc(O)ccc12	11.6	7.5	–	12.1	0.05
CC1=C(C(=O)O)N2C(=O)C(NC(=O)C(N)c3ccc(O)cc3)[C@H]2SC1 (stereo partly specified)	1.5	0.23	2.5	1.1	–
Oc1ccc([C@H]2CNCCc3c2cc(O)c(O)c3Cl)cc1	0.2	0.5	41.5	1	0.12
CN1CCc2nc(C(=O)N[C@@H]3CC(C(=O)N(C)C)CC[C@@H]3NC(=O)C(=O)Nc3ccc(Cl)cn3)sc2C1 (stereo partly specified)	–	–	–	–	0.5
C=C1C=CC=C(C)[C@H](O)[C@@H](C)[C@@H](O)[C@@H](C)[C@H](OC(C)=O)[C@H](C)[C@@H](OC)/C=C/O[C@@]2(C)Oc3c(C)c(O)c4c(O)c(c5c(c4c3C2=O)NC2(CCN(CC(C)C)CC2)N5)NC1=O	65	9.3	2.4	37	–
CC1=C(CO)C2=C(C)C3(CC3)[C@@](C)(O)C(=O)C2=C1	0.4	3.1	140	0.3	–
NC(=O)N1c2ccccc2CC(O)c2ccccc21 (stereo unspecified)	13.6	0.72	0.88	9.8	0.7
CCN[C@@H]1C[C@H](N)[C@@H](O[C@H]2OC(CN)=CC[C@H]2N)[C@H](O)[C@H]1O[C@H]1OC[C@](C)(O)[C@H](NC)[C@H]1O	2.2	0.073	0.55	3.2	1
Cn1c(CCCC(=O)O)nc2cc(N(CCCl)CCCl)ccc21	0.81	0.22	4.49	0.41	0.05
Oc1ccc(C2=Cc3ccc(O)cc3OC2)cc1	0.44	1.55	59.1	0.67	–
COCCN1CCN(Cc2ccc(-c3n[nH]c4c3C(=O)c3c(NC(=O)NN5CCOCC5)cccc3-4)cc2)CC1	8.5	5.9	11.5	9.9	–
CCN1CCC[C@H]1CNC(=O)c1c(O)c(Cl)cc(Cl)c1OC	15.3	1.1	1.2	14	0.06
Cc1ccccc1C(=O)Nc1ccc(C(=O)N2CCC[C@H](O)c3cc(Cl)ccc32)c(C)c1	3.5	0.5	2.4	2.9	0.01

Compound	MRT [h]	Vd [L/kg]	clearance [mL/min/kg]	half-life [h]	fraction unbound
Cn1cc(C(=O)C2CCc3[nH]cnc3C2)c2ccccc21 (stereo unspecified)	6.28	2.65	7.03	4.94	–
CC(C1=C(CCN(C)C)Cc2ccccc21)c1ccccn1 (stereo unspecified)	5.98	2.16	4.83	4.6	–
CN(CCCCCCN(C)C(=O)Oc1ccc[n+](C)c1)C(=O)Oc1ccc[n+](C)c1	82.4	1	0.2	59.8	–
O=C(/C=C/c1ccc(O)c(O)c1)O[C@@H]1C[C@](O)(C(=O)O)C[C@@H](OC(=O)/C=C/c2ccc(O)c(O)c2)[C@H]1O	1.05	4.82	75.8	3.17	–
CN(C)C(=O)Oc1cc(OC(=O)N(C)C)cc(C(O)CNC(C)(C)C)c1 (stereo unspecified)	1.4	1.6	18	2.6	–
CCN(CC)c1ccc2cc(C(=O)Nc3ccc4[nH]c(C(=O)N5C[C@@H](CCl)c6c5cc(OC(=O)Nc5ccccc5)c5[nH]cc(C)c65)cc4c3)oc2c1	0.51	0.09	2.9	0.48	–
CCN(C)C(=O)Oc1cccc([C@H](C)N(C)C)c1	1.9	1.3	12	1.4	0.6
Cc1nnc(C(C)C)n1C1C[C@H]2CC[C@@H](C1)N2CC[C@@H](NC(=O)C1CCC(F)(F)CC1)c1ccccc1 (stereo partly specified)	4.2	–	–	12.8	–
COCC(NC(C)=O)C(=O)NCc1ccccc1 (stereo unspecified)	17.2	0.58	0.57	12.3	0.85
O=P(O)(O)C(NC1CCCCCC1)P(=O)(O)O	1.85	0.24	2.16	1.82	0.9
Nc1n[n+]([O-])c2ccccc2[n+]1[O-]	–	–	–	–	0.81
Cc1cc(F)ccc1[C@H]1CNCCN1C(=O)N(C)[C@H](C)c1cc(C(F)(F)F)cc(C(F)(F)F)c1	12.8	3.8	5.09	10	–
CC1(C)S[C@@H]2C(NC(=O)C(NC(=O)N3CCN(/N=C/c4ccco4)C3=O)c3ccc(O)cc3)C(=O)N2C1C(=O)O (stereo partly specified)	0.92	0.2	3.61	1.3	–
NCCCC(O)(P(=O)(O)O)P(=O)(O)O	2.1	–	–	–	–
Nc1nc(Cl)nc2c1ncn2[C@@H]1O[C@H](CO)[C@@H](O)[C@@H]1F	3.8	1.75	7.7	4	–
CC[C@@]1(O)CN2CC[C@H]1C[C@@H]2[C@@H](O)c1ccnc2ccc(OC)cc12	9.4	6.8	12	6.7	0.47
C[C@@H](O[C@H]1OCCN(Cc2n[nH]c(=O)[nH]2)[C@H]1c1ccc(F)cc1)c1cc(C(F)(F)F)cc(C(F)(F)F)c1	–	0.94	–	13	–
